Data: patent US20100331348A1, “TROPANE DERIVATIVES USEFUL AS PESTICIDES” (SYNGENTA CROP PROTECTION, INC., priority 2007, published 2010)
Where two headings read alike, the source gives them in different places.

Key:
Aedes aegypti = Aedes aegypti (Yellow fever mosquito) larvae test; type: in vivo; conditions: 48 h
Pyricularia oryzae = assay: whole plant or invertebrate; type: in vivo; conditions: foliar, 96 h
[1] = tested on: Erysiphe graminis f.sp. tritici; assay: Erysiphe graminis f.sp. tritici (wheat powdery mildew) leaf disk assay; type: in vivo; conditions: Blumeria graminis, foliar, 96 h, preventive, four days after inoculation, read-out: control of fungal infection, Erysiphe graminis fsp. tritici
Plutella xylostella = Plutella xylostella (Diamond back moth) artificial diet test; conditions: 120 h, read-out: control of Plutella xylostella
[2] = tested on: Puccinia recondita f.sp. tritici; assay: Puccinia recondita f.sp. tritici (wheat brown rust) leaf disk assay; type: in vivo; conditions: foliar, 216 h, preventive, nine days after inoculation, read-out: control of fungal infection, Puccinia recondita f.sp. tritici
Phytophthora infestans = assay: whole plant or invertebrate; type: in vivo; conditions: foliar, 96 h, read-out: control of fungal infection, Phytophthora infestans
[3] = read-out: control of fungal infection, Pyricularia oryzae (at least 60% list)
[4] = read-out: control of fungal infection, Pyricularia oryzae (at least 80% list)

SMILES	pest or weed control at 2 ppm (Aedes aegypti) [%]	pest or weed control at 200 ppm (Pyricularia oryzae; [3]) [%]	pest or weed control at 200 ppm [1] [%]	pest or weed control at 200 ppm (Plutella xylostella) [%]	pest or weed control at 200 ppm [2] [%]	pest or weed control at 200 ppm (Phytophthora infestans) [%]	pest or weed control at 200 ppm (Pyricularia oryzae; [4]) [%]
CCc1ncnc(N2C3CCC2CC(=NOCc2c(F)cccc2F)C3)c1Cl [Example 5.61]	≥ 80	≥ 60	≥ 80	≥ 80	≥ 80	–	–
Cc1nsc(Oc2cccc(OC3C[C@H]4CC[C@@H](C3)N4c3ncnc4scc(C)c34)c2)n1 (stereo partly drawn) [Example 2.73]	–	–	≥ 80	–	–	≥ 80	–
CCc1ncnc(N2[C@@H]3CC[C@H]2CC(Oc2cccc(F)c2F)C3)c1Cl (stereo partly drawn) [Example 1.164]	≥ 80	–	≥ 80	≥ 80	≥ 80	–	–
CC(=O)Nc1ccc(CON=C2CC3CCC(C2)N3c2ncnc3sccc23)cc1 [Example 5.159]	–	–	≥ 80	–	–	≥ 80	–
CCc1ncnc(N2C3CCC2CC(=NOCc2cccc(C)c2F)C3)c1Cl [Example 5.74]	–	–	≥ 80	≥ 80	≥ 80	–	–
CCc1ncnc(N2C3CCC2CC(=NOc2ncccn2)C3)c1Cl [Example 5.2]	–	–	–	–	–	≥ 80	–
N#Cc1cccc(CON=C2CC3CCC(C2)N3c2ncnc3sccc23)c1 [Example 5.199]	–	–	≥ 80	–	≥ 80	≥ 80	≥ 80
COc1cccc(CON=C2CC3CCC(C2)N3c2ncnc3sccc23)c1 [Example 5.164]	≥ 80	–	≥ 80	≥ 80	≥ 80	–	–
c1ccc2c(c1)[nH]c1cc(OC3C[C@H]4CC[C@@H](C3)N4c3ncnc4sccc34)ccc12 (stereo partly drawn) [Example 2.19]	–	–	≥ 80	–	–	≥ 80	–
CCc1ncnc(N2C3CCC2CC(=NOCc2cccc(Cl)c2F)C3)c1Cl [Example 5.79]	–	–	≥ 80	≥ 80	≥ 80	–	–
CCc1ncnc(N2C3CCC2CC(=NOCc2c(C)cc(C)cc2C)C3)c1Cl [Example 5.33]	–	–	≥ 80	≥ 80	–	–	–
c1ccc(-c2ccccc2CON=C2CC3CCC(C2)N3c2ncnc3sccc23)cc1 [Example 5.177]	–	–	–	–	–	≥ 80	–
c1ccc(CCON=C2CC3CCC(C2)N3c2ncnc3sccc23)cc1 [Example 5.140]	–	≥ 60	≥ 80	–	≥ 80	≥ 80	≥ 80
CCc1ncnc(N2C3CCC2CC(=NOCc2ccc4ccccc4c2)C3)c1Cl [Example 5.8]	–	–	≥ 80	≥ 80	≥ 80	–	–
CCc1ncnc(N2C3CCC2CC(=NOCc2ccccc2OC(F)F)C3)c1Cl [Example 5.68]	≥ 80	–	≥ 80	≥ 80	≥ 80	–	–
C#CCOc1ccc(C(C)(C)c2ccc(OC3C[C@H]4CC[C@@H](C3)N4c3ncnc4sccc34)cc2)cc1 (stereo partly drawn) [Example 2.225]	–	–	–	≥ 80	–	–	–
CCc1ncnc(N2C3CCC2CC(=NOCc2c(C)noc2C)C3)c1Cl [Example 5.110]	–	–	–	–	≥ 80	≥ 80	–
CCc1ncnc(N2C3CCC2CC(=NOCc2cccc(C)c2)C3)c1Cl [Example 5.12]	≥ 80	–	≥ 80	≥ 80	≥ 80	–	–
Brc1ccc(CON=C2CC3CCC(C2)N3c2ncnc3sccc23)cc1 [Example 5.158]	–	–	≥ 80	–	≥ 80	≥ 80	≥ 80
CCc1ncnc(N2C3CCC2CC(=NOCc2ccc(C)c(C)c2)C3)c1Cl [Example 5.27]	–	–	≥ 80	≥ 80	≥ 80	–	–
COC(=O)Cc1c(Cl)ncnc1ON=C1CC2CCC(C1)N2c1ncnc2sccc12 [Example 5.237]	–	–	≥ 80	–	–	≥ 80	–
CCc1ncnc(N2C3CCC2CC(=NOCc2ccc(NC(C)=O)cc2)C3)c1Cl [Example 5.51]	–	–	≥ 80	–	≥ 80	≥ 80	–
FC(F)(F)c1cccc(OC2C[C@H]3CC[C@@H](C2)N3c2ncnc3ccccc23)n1 (stereo partly drawn) [Example 2.83]	–	–	≥ 80	–	≥ 80	≥ 80	–
CCc1ncnc(N2C3CCC2CC(=NOCc2ccccc2Cl)C3)c1Cl [Example 5.28]	≥ 80	–	≥ 80	≥ 80	≥ 80	–	–

SMILES	pest or weed control at 2 ppm (Aedes aegypti) [%]	pest or weed control at 200 ppm (Pyricularia oryzae; [3]) [%]	pest or weed control at 200 ppm [1] [%]	pest or weed control at 200 ppm (Plutella xylostella) [%]	pest or weed control at 200 ppm [2] [%]	pest or weed control at 200 ppm (Phytophthora infestans) [%]	pest or weed control at 200 ppm (Pyricularia oryzae; [4]) [%]
Cc1ccc(OC2C[C@H]3CC[C@@H](C2)N3c2ncnc3sccc23)cn1 (stereo partly drawn) [Example 2.44]	–	–	≥ 80	–	–	≥ 80	–
Fc1cccc(OC2C[C@H]3CC[C@@H](C2)N3c2ncnc3sccc23)c1F (stereo partly drawn) [Example 1.24]	≥ 80	≥ 60	–	≥ 80	≥ 80	–	–
CCc1ncnc(N2C3CCC2CC(=NOCc2cccc(C#N)c2)C3)c1Cl [Example 5.44]	≥ 80	–	≥ 80	≥ 80	≥ 80	–	–
CCc1ncnc(N2[C@@H]3CC[C@H]2CC(Oc2ccc(OC)cc2C(C)=O)C3)c1Cl (stereo partly drawn) [Example 1.211]	–	–	–	–	–	≥ 80	–
CCc1ncnc(N2C3CCC2CC(=NOCc2ccccc2C(F)(F)F)C3)c1Cl [Example 5.70]	≥ 80	–	≥ 80	≥ 80	≥ 80	–	–
FC(F)(F)c1ccccc1CON=C1CC2CCC(C1)N2c1ncnc2sccc12 [Example 5.188]	≥ 80	≥ 60	≥ 80	≥ 80	≥ 80	–	–
CC(C)c1ccc(OC2C[C@H]3CC[C@@H](C2)N3c2ncnc3sccc23)cc1 (stereo partly drawn) [Example 2.17]	–	–	≥ 80	≥ 80	–	–	–
FC(F)(F)c1cccc(CON=C2CC3CCC(C2)N3c2ncnc3sccc23)c1 [Example 5.187]	≥ 80	≥ 60	≥ 80	≥ 80	≥ 80	–	–
CCc1ncnc(N2[C@@H]3CC[C@H]2CC(NCc2ccc(Cl)cc2)C3)c1Cl (stereo partly drawn) [Example 4.12]	–	–	–	–	–	≥ 80	–
CCc1ncnc(N2C3CCC2CC(=NOCc2ccccc2Br)C3)c1Cl [Example 5.31]	–	–	≥ 80	≥ 80	≥ 80	–	–
Cc1cccc(CON=C2CC3CCC(C2)N3c2ncnc3sccc23)c1F [Example 5.223]	≥ 80	–	≥ 80	≥ 80	≥ 80	–	–
CCc1ncnc(N2C3CCC2CC(=NOCc2c(Cl)cccc2Cl)C3)c1Cl [Example 5.34]	–	–	≥ 80	≥ 80	–	–	–
CCc1ncnc(N2C3CCC2CC(=NOCc2ccc(OC)c(Cl)c2Cl)C3)c1Cl [Example 5.88]	≥ 80	–	≥ 80	≥ 80	≥ 80	–	≥ 80
Cc1cc(C)c(CON=C2CC3CCC(C2)N3c2ncnc3sccc23)c(C)c1 [Example 5.189]	–	–	≥ 80	–	≥ 80	≥ 80	–
CCc1ncnc(N2C3CCC2CC(=NOCC(=O)OC(C)(C)C)C3)c1Cl [Example 5.24]	–	–	≥ 80	–	–	≥ 80	–
CCc1ncnc(N2[C@@H]3CC[C@H]2CC(Oc2ccc(C(C)(C)C)cc2)C3)c1Cl (stereo partly drawn) [Example 2.147]	–	–	–	≥ 80	–	–	–
CCc1ncnc(N2C3CCC2CC(=NOCc2ccc(Cl)cc2Cl)C3)c1Cl [Example 5.50]	–	–	–	≥ 80	–	–	–
CCc1ncnc(N2C3CCC2CC(=NOCc2ccc(C)cc2C)C3)c1Cl [Example 5.36]	≥ 80	–	≥ 80	≥ 80	≥ 80	–	–
CCc1ncnc(N2C3CCC2CC(=CC(=O)N(C)C)C3)c1Cl [Example 3.3]	–	–	–	–	–	≥ 80	–
Fc1cccc(Cl)c1CON=C1CC2CCC(C1)N2c1ncnc2sccc12 [Example 5.213]	≥ 80	–	≥ 80	≥ 80	≥ 80	–	–
Cc1nc(CON=C2CC3CCC(C2)N3c2ncnc3sccc23)cs1 [Example 5.220]	–	–	≥ 80	–	≥ 80	≥ 80	–
CN(C)C(=O)C=C1CC2CCC(C1)N2c1ncnc2sccc12 [Example 3.25]	–	–	–	–	–	≥ 80	–
FC(F)Oc1cccc(CON=C2CC3CCC(C2)N3c2ncnc3sccc23)c1 [Example 5.204]	≥ 80	≥ 60	≥ 80	≥ 80	≥ 80	–	–
